In ChEMBL document CHEMBL3286254, “Structure-guided discovery of 1,3,5 tri-substituted benzenes as potent and selective matriptase inhibitors exhibiting in vivo antitumor efficacy” (Bioorg Med Chem, 2014):
In brackets after ≈: the same amount, converted by molar mass.

How the values were obtained:
[1] = Metabolic stability in mouse liver microsomes assessed as compound remaining after 20 mins; assay type: ADME; conditions: read-out: Stability
DU-145 [2] = assay: Antiinvasion activity in human DU145 cells assessed as inhibition of FBS-induced cell invaded to lower surface at 10 uM for 3 days by matrigel assay; assay type: functional; conditions: DU-145, 72 h
[3] = Cytotoxicity against human LNCaP-C42B4 cells assessed as inhibition of number of colonies formed in soft agar measured on day 8; assay type: functional, cell-based; conditions: LNCaP-C42B4, 192 h
Coagulation factor X = Coagulation factor X (Bos taurus, UniProt P00743); assay: Inhibition of bovine plasma factor 10a using CH3OCO-D-CHA-Gly-Arg-pNA.AcoH substrate
[4] = Aqueous solubility of the compound; assay type: physicochemical; conditions: buffer
[5] = Antiinvasion activity in human LNCaP-C42B4 cells assessed as inhibition of FBS-induced cell invaded to lower surface at 10 uM for 3 days by matrigel assay; assay type: functional; conditions: LNCaP-C42B4, 72 h
Cytochrome P450 3A4 = Cytochrome P450 3A4 (Homo sapiens, UniProt P08684); assay: Inhibition of CYP3A4 (unknown origin); assay type: ADME
[6] = Cytotoxicity against human LNCaP-C42B4 cells assessed as cell survival at 10 uM after 72 hrs by calcein AM assay; assay type: functional; conditions: LNCaP-C42B4, 72 h, read-out: Activity
[7] = Metabolic stability in human liver microsomes assessed as compound remaining after 20 mins; assay type: ADME; conditions: read-out: Stability
PC-3 [8] = assay: Antiinvasion activity in human PC3 cells assessed as inhibition of FBS-induced cell invaded to lower surface at 10 uM for 3 days by matrigel assay; assay type: functional; conditions: PC-3, 72 h
Cytochrome P450 2C9 = Cytochrome P450 2C9 (Homo sapiens, UniProt P11712); assay: Inhibition of CYP2C9 (unknown origin); assay type: ADME
DU-145 [9] = assay: Cytotoxicity against human DU145 cells assessed as inhibition of number of colonies formed in soft agar measured on day 8; assay type: functional, cell-based; conditions: DU-145, 192 h
PC-3 [10] = assay: Cytotoxicity against human PC3 cells assessed as inhibition of number of colonies formed in soft agar measured on day 8; assay type: functional, cell-based; conditions: PC-3, 192 h
Trypsin = Trypsin (Homo sapiens, UniProt P07477+P07478+P35030); assay: Inhibition of human pancreas Trypsin using Boc-Gln-Ala-Arg-7-amido-4-methyl coumarin hydrobromide; assay type: protein assay
Cytochrome P450 2D6 = Cytochrome P450 2D6 (Homo sapiens, UniProt P10635); assay: Inhibition of CYP2D6 (unknown origin); assay type: ADME
[11] = biological target: T1, Suppressor of tumorigenicity 14 protein (Homo sapiens, UniProt Q9Y5Y6); assay: Inhibition of recombinant matriptase (unknown origin) using Boc-Gln-Ala-Arg-7-amido-4-methyl coumarin hydrobromide
T1 sequence (Q9Y5Y6 whole entry): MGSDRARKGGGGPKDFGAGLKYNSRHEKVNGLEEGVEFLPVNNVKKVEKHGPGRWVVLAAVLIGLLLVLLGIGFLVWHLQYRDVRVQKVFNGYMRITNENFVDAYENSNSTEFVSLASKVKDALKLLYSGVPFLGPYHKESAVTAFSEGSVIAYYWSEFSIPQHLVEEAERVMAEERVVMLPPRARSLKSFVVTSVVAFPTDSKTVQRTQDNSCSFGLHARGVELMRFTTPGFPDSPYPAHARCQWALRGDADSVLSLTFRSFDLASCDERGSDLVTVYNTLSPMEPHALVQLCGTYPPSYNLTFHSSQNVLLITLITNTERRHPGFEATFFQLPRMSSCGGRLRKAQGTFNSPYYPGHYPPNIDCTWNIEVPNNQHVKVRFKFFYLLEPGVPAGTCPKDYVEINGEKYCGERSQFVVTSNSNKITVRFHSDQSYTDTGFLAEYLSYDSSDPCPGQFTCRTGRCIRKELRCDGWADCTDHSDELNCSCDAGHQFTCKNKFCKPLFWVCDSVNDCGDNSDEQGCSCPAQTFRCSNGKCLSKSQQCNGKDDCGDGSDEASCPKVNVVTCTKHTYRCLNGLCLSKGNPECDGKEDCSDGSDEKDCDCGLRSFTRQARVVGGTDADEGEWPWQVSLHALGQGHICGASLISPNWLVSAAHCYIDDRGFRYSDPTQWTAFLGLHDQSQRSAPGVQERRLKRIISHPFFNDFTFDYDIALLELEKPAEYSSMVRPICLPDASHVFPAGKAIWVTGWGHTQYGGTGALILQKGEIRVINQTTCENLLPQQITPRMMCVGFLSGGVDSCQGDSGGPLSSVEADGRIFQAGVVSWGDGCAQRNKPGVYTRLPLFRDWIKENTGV

DU-145 [12] = assay: Cytotoxicity against human DU145 cells assessed as cell survival at 10 uM after 72 hrs by calcein AM assay; assay type: functional; conditions: DU-145, 72 h, read-out: Activity
Prothrombin = Prothrombin (Homo sapiens, UniProt P00734); assay: Inhibition of human thrombin using Boc-Gln-Ala-Arg-7-amido-4-methyl coumarin hydrobromide
[13] = Metabolic stability in rat liver microsomes assessed as compound remaining after 20 mins; assay type: ADME; conditions: read-out: Stability
Cytochrome P450 2C19 = Cytochrome P450 2C19 (Homo sapiens, UniProt P33261); assay: Inhibition of CYP2C19 (unknown origin); assay type: ADME
PC-3 [14] = assay: Cytotoxicity against human PC3 cells assessed as cell survival at 10 uM after 72 hrs by calcein AM assay; assay type: functional; conditions: PC-3, 72 h, read-out: Activity
[15] = Terminal half life in NMRI mouse at 1 mg/kg, sc; conditions: in vivo, read-out: beta t1/2 (converted)
Mus musculus [16] = assay: Toxicity in SCID mouse xenografted with human DU145 cells assessed as body weight change at 1 mg/kg, sc administered twice daily for 31 days; conditions: in vivo, 744 h
Mus musculus [17] = assay: Toxicity in SCID mouse xenografted with human DU145 cells assessed as clinical signs at 1 mg/kg, sc administered twice daily for 31 days; conditions: in vivo, 744 h
[18] = AUC (0 to infinity) in NMRI mouse at 1 mg/kg, sc; conditions: plasma
[19] = Tmax in NMRI mouse at 1 mg/kg, sc; conditions: in vivo
[20] = Cmax in NMRI mouse at 1 mg/kg, sc; conditions: in vivo
Plasminogen = Plasminogen (Homo sapiens, UniProt P00747); assay: Inhibition of human plasmin using pyroGlu-Phe-Lys-pNA.HCl
DU-145 [21] = assay: Antitumor activity against human DU145 cells xenografted in SCID mouse assessed as tumor growth inhibition at 0.5 mg/kg, sc administered twice daily for 31 days; assay type: functional; conditions: DU-145, sc, 744 h, route subcutaneous, read-out: TGI
Mus musculus [22] = assay: Toxicity in SCID mouse xenografted with human DU145 cells assessed as clinical signs at 0.5 mg/kg, sc administered twice daily for 31 days; assay type: organism-based, DU-145; set-up: dose 0.5 mg/kg, route subcutaneous; conditions: in vivo, 744 h
Mus musculus [23] = assay: Toxicity in SCID mouse xenografted with human DU145 cells assessed as body weight change at 0.5 mg/kg, sc administered twice daily for 31 days; assay type: organism-based, DU-145; set-up: dose 0.5 mg/kg, route subcutaneous; conditions: in vivo, 744 h

Coagulation factor X, sequence (P00743 41-180 limits assumed): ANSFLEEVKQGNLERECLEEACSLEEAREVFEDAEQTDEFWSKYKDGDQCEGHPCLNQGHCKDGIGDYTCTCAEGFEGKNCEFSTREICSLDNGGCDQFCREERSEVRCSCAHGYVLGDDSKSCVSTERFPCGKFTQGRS
Coagulation factor X, sequence (P00743 234-492 limits assumed): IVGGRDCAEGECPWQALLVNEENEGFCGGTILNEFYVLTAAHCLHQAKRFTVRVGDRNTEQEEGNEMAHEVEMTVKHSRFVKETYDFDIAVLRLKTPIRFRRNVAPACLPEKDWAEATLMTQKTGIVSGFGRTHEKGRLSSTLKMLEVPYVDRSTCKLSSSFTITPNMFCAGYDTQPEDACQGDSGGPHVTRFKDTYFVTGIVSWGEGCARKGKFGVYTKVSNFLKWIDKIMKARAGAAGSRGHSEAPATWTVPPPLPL
Cytochrome P450 2C19, sequence (P33261 whole entry): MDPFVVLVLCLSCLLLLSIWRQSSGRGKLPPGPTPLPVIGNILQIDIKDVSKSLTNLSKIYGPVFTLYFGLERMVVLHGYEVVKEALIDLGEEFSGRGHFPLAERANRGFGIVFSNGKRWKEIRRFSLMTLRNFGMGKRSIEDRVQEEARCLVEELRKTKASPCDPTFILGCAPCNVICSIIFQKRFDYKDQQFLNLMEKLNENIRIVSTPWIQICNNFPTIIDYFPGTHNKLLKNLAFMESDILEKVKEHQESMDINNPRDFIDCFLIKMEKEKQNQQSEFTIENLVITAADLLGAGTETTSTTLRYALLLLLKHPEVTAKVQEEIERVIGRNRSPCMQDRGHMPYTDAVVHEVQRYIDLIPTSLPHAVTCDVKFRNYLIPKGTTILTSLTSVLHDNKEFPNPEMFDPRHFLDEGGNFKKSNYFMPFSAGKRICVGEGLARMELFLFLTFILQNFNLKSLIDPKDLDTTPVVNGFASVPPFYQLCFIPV
Cytochrome P450 2C9, sequence (P11712 whole entry): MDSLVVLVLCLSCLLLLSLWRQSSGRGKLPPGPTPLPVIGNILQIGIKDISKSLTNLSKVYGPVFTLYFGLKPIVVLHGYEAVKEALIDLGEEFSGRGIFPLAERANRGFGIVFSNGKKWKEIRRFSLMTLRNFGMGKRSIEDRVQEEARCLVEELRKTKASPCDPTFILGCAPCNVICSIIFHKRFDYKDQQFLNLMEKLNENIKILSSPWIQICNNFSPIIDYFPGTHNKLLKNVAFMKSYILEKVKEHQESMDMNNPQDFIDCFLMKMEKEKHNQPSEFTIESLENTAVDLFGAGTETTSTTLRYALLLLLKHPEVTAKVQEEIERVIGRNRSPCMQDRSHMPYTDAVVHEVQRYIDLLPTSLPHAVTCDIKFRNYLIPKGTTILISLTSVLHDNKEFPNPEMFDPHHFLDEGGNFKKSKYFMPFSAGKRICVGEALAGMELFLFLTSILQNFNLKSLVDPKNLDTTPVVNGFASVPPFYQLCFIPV
Cytochrome P450 3A4, sequence (P08684 whole entry): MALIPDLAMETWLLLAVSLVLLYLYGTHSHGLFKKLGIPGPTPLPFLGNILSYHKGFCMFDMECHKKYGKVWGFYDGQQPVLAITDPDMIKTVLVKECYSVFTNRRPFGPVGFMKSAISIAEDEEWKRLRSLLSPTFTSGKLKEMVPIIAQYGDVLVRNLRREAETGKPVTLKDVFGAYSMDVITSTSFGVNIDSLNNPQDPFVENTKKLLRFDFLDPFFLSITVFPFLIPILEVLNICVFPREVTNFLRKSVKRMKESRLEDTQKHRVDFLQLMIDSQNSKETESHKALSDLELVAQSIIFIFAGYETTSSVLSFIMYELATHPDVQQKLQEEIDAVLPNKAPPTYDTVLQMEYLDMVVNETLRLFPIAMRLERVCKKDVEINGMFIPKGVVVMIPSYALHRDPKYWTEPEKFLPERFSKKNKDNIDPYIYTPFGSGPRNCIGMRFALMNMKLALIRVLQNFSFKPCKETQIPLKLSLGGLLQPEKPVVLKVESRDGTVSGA
Cytochrome P450 2D6, sequence (P10635 whole entry): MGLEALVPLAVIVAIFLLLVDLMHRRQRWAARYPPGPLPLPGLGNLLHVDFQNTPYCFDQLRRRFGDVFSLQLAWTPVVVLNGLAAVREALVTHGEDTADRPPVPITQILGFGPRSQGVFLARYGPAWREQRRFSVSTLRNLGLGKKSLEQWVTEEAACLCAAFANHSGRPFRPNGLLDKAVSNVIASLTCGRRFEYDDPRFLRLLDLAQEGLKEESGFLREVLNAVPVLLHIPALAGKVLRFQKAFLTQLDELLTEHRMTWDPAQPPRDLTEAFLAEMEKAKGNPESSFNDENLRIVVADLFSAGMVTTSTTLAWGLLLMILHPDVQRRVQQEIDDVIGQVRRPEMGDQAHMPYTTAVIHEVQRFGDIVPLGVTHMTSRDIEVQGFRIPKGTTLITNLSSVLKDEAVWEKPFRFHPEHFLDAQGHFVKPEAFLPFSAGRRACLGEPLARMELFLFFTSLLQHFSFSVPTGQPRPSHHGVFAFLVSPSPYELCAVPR
Plasminogen, sequence (P00747 97-580 limits assumed): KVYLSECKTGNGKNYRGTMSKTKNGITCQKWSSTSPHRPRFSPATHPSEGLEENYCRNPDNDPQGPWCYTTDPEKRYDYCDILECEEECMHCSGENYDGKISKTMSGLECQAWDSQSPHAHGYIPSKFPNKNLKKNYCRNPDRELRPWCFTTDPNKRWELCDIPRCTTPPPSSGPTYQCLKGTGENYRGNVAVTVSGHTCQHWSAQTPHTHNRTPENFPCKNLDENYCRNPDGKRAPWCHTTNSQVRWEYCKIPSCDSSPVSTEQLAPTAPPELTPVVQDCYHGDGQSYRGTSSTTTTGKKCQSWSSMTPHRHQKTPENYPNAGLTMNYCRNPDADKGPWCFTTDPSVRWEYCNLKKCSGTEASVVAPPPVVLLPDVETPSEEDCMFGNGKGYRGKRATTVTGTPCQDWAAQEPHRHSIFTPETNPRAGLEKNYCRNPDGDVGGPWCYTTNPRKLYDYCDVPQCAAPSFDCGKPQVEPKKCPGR
Plasminogen, sequence (P00747 581-810 limits assumed): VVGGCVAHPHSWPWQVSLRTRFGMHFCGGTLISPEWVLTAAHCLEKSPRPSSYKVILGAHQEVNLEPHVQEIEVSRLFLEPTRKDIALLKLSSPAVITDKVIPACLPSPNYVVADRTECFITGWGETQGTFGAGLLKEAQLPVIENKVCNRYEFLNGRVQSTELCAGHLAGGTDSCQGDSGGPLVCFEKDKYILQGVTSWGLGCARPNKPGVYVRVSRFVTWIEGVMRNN

Structure (SMILES)	remaining at 20 min [1] [%]	inhibition at 10 µM (DU-145 [2]) [%]	EC50 [3] [nM]	Ki (Coagulation factor X) [nM]	solubility [4] [µM]	inhibition at 10 µM [5] [%]	IC50 (Cytochrome P450 3A4) [nM]	viability at 10 µM [6] [%]	remaining at 20 min [7] [%]	inhibition at 10 µM (PC-3 [8]) [%]	IC50 (Cytochrome P450 2C9) [nM]	EC50 (DU-145 [9]) [nM]	EC50 (PC-3 [10]) [nM]	Ki (Trypsin) [nM]	IC50 (Cytochrome P450 2D6) [nM]	Ki [11] [nM]	viability at 10 µM (DU-145 [12]) [%]	Ki (Prothrombin) [nM]	remaining at 20 min [13] [%]	viability at 10 µM (PC-3 [14]) [%]	also measured
N=C(N)c1ccc(Oc2cc(Oc3ccc(C(=N)N)cc3)cc(C(=O)O[C@H]3CC[C@H](N)CC3)c2)cc1	24	89	135	44	182 (≈ 88.7 µg/mL)	90	> 30000	95	54	95	> 30000	152	81	264	> 30000	1	92	2470	34	82	IC50 (Cytochrome P450 2C19): > 30000 nM
N=C(N)c1ccc(Oc2cc(Oc3ccc(C(=N)N)cc3)cc(C(=O)N[C@H]3CC[C@H](N)CC3)c2)cc1	81	81	1360	516	194 (≈ 94.4 µg/mL)	84	> 30000	95	85	97	> 30000	200	48	1625	> 30000	10	100	2100	100	96	half-life [15]: 1.6 h; Activity (Mus musculus [16]): < 5%; Activity (Mus musculus [17]): Non-toxic; AUC(0-inf) [18]: 1000 ng·h/mL; Tmax [19]: 0.27 h; IC50 (Cytochrome P450 2C19): > 30000 nM; Cmax [20]: 487 ng/mL
N=C(N)c1ccc(Oc2cc(NC(=O)C3CCN(C(=O)CCN)CC3)cc(Oc3ccc(C(=N)N)cc3)c2)cc1		94	1580	95		60		99		37		130	580	541		61	98	2680		80	Ki (Plasminogen): 2590 nM
N=C(N)c1ccc(Oc2cc(NC(=O)[C@H]3CC[C@H](N)CC3)cc(Oc3ccc(C(=N)N)cc3)c2)cc1	83	98	1540	503	200 (≈ 97.3 µg/mL)	63	> 30000	90	97	86	> 30000	41	105	894	> 30000	3	100	2220	91	94	inhibition in vivo at 0.5 mg/kg (DU-145 [21]): 52%; half-life [15]: 3.3 h; AUC(0-inf) [18]: 1850 ng·h/mL; Tmax [19]: 0.75 h; Activity (Mus musculus [22]): Non-toxic; IC50 (Cytochrome P450 2C19): > 30000 nM; Cmax [20]: 484 ng/mL; Activity (Mus musculus [23]): < 5%
